Reference: patent US9808470B2, “Estrogenic components for use in the treatment of neurological disorders” (UNIVERSITE DE LIEGE, priority 2012, dated 2017)

What was measured:
[1] = test system: Microtubule-associated protein 2 (MAP2); test: Ex.8 therapeutic HIE rat model: MAP2 staining; assay type: in vivo
Experimental: To study the therapeutic effect of estetrol, newborn rat pups were assigned to one of the following 14 groups at postnatal day 7 (FIG. 23(B)): Sham group (n=12), Vehicle (n=15), 5 mg/kg/day E4 (n=11), 10 mg/kg/day E4 (n=11), 5 mg/kg/day E4+1.6 mg/kg/day PROG (n=11), 10 mg/kg/day E4+1.6 mg/kg/day PROG (n=11), 5 mg/kg/day E4+16 mg/kg/day PROG (n=11), 10 mg/kg/day E4+16 mg/kg/day PROG (n=13), 5 mg/kg/day E4+136 ng//kg/day E2 (n=11), 10 mg/kg/day E4+136 ng/kg/day E2 (n=11), 5 mg/kg/day E4+1.6 mg/kg/day PROG+136 ng/kg/day E2 (n=12), 10 mg/kg/day E4+1.6 mg/kg/day PROG+136 ng/kg/day E2 (n=11), 5 mg/kg/day E4+16 mg/kg/day PROG+136 ng/kg/day E2 (n=11), 10 mg/kg/day E4+16 mg/kg/day PROG+136 ng/kg/day (n=12) groups. […] After surgery, the pups were returned to their dams and allowed to recover for 1 hour. The pups were then placed in a humidified hypoxic in vivo cabinet (CoyLab). […]
The brain sections were processed for immunohistochemical detection of neuronal cytoskeletal disruption. […] Samples were analyzed with the aid of an image scanner (Nanozoomer Virtual Microscopy, Hamamatsu, Tokyo, Japan) and the ImageJ software (NIH, US). The positive areas in the ipsilateral and contralateral hemispheres were measured. The ratio of the MAP2 positive areas was calculated as the MAP2 positive area of the ipsilateral hemisphere divided by the MAP2 positive area of the contralateral hemisphere. […]

[2] = test system: Myelin Basic Protein (MBP); test: Ex.7 neuroprotective HIE rat model: myelin basic protein staining; assay type: in vivo; settings: vs vehicle
Source text: FIG. 21. Myelin Basic Protein (MBP) staining of brain coronal sections in rat pups that were pre-treated with estetrol. Brains were removed upon sacrifice at postnatal day 14 and paraformaldehyde-fixed and paraffin-embedded brain samples were coronally sectioned at the hippocampus region. The sections were processed for detection of white matter damage through immunohistological staining with anti-MBP antibody. (A-F) MBP staining of brain coronal sections (scale bar: 2 mm) is shown. (G-L) MBP staining of cingulum of the left hemisphere is (scale bar: 2 mm) shown. (M) The ratio of the MBP positive areas OD ratio was calculated as the MBP positive area OD of the ipsilateral hemisphere divided by the MBP positive area OD of the contralateral hemisphere. 10 samples from each study group were analyzed. The ratio of the MBP positive area OD in the Sham group was considered by default as 1.0.
The sections were processed for immunohistochemical detection of neuronal myelin basic protein disruption. For antigen retrieval, the sections were heated in 10 mmol/L citrate buffer (pH 6.0) at 100° C. for 10 min. […] 10 samples from each study group of both study designs were analyzed with the aid of an image scanner (Nanozoomer Virtual Microscopy, Hamamatsu, Tokyo, Japan) and ImageJ software (NIH, USA). The MBP positive areas optical densities in the ipsilateral and contralateral hemispheres were measured. […]

## C[C@]12CC[C@@H]3c4ccc(O)cc4CC[C@H]3[C@@H]1[C@@H](O)[C@@H](O)[C@@H]2O [E4, 1,3,5(10)-estratrien-3,15α,16α,17β-tetrol]
[1]; 5 mg/kg/day E4
  MAP-2 positive area ratio: 0.98±0.02
[1]; 10 mg/kg/day E4
  MAP-2 positive area ratio: 0.97±0.04
[2]; 5 mg/kg/day E4 pre-treated
  ratio of the MBP-positive area OD: significantly higher
[2]; 50 mg/kg/day E4 pre-treated
  ratio of the MBP-positive area OD: significantly higher
